Source: patent US5079261A, “Use of lipoxin A4 and its derivatives as antagonists for slow-reacting substances of anaphylaxis” (Brigham and Women's Hospital, priority 1989, dated 1992)

Tests used:
[1] = system: renal arterioles; conditions: renal artery, anesthetized rats; cited from earlier work
[2] = system: rat mesangial cells; test: IP3 formation ([3H]-inositol labeled mesangial cells) in response to LTD4 or LXA4; type: cell-based; conditions: Mesangial cell, 5 s
Description: Statistical: ANOVA with Bonferroni modification for multiple pre-planned comparisons was used, within each group and between groups, to compare the changes in various whole kidney and microcirculatory indices which occurred from one period to another. In phosphoinositide generation studies, increases in [^3 H]-IP3 CPMs in agonist-treated cells were compared to vehicle-treated controls using upaired students t-test. Differences were considered significant at a p value ≤0.05. All values are reported as means ± SEM.
The isolated glomeruli were harvested from the surface of the 75 μm filter and washed twisce with the Hank's Media. […] Mesangial cell colonies were subcultured in 60 mm culture dishes, and experiments were carried out in cells from passages 2 to 12.
To label mesangial cells with [^3 H]-Inositol, cells grown to confluence in 60 mm culture dishes (10^6 cells/dish) were cultured in RPMI, supplemented with 10% dialyzed fetal calf serum and [^3 H]-inositol (1 μCi/ml) in a total incubation volume of 5 ml.
Reactions were terminated by the addition of cold 10% trichloroacetic acid (TCA), the supernatants subjected to ether extraction, and the aqueous phase titrated to neutral pH using 0.1 M Tris base. […] To ensure the reliability of the separation technique, the same methods for extraction and separation were applied to known amounts of [^3 H]-IP1, [^3 H]IP2, and [^3 H]-IP3 standards (New England Nuclear) mixed in a ratio of 3:2:1, respectively, and subjected to separation by HPLC.

For `CCCCC[C@H](O)/C=C/C=C\C=C\C=C\[C@@H](O)[C@@H](O)CCCC(=O)O` [LXA4, (5S,6R,15S)-5,6,15-trihydroxy-7,9,13-trans-11-cis-eicosatetraenoic acid], the “Glomerular capillary ultrafiltration coefficient (Kf)” value [1] is given as “reduces”, the Renal arteriole response [1] is given as “elicits vasodilator responses” and the activation at 0.001 µM ([2]; 1 nM, 5 sec, n=3, p<0.05, read-out: increase in [3H]-IP3 counts over controls) is given as 46 ± 14%. The activation at 0.01 µM ([2]; 10 nM LXA4, 5 sec, n=6, p<0.05, read-out: increase in [3H]-IP3 counts over controls) was 50 ± 21%, the activation at 0.05 µM ([2]; 50 nM LXA4, 5 sec, n=3, p<0.05, read-out: increase in [3H]-IP3 counts over controls) was 44 ± 22% and the activation at 0.1 µM ([2]; 100 nM, 5 sec, n=5, p<0.05, read-out: increase in [3H]-IP3 counts over controls) was 45 ± 26%.
